# Experimental data taken from US20110071173A1, “IMIDAZOQUINAZOLINE DERIVATIVES AS ANAGRELIDE ANALOGUES FOR THE TREATMENT OF MYELOPROLIFIC DISEASES AND THROMBOTIC DISEASES” (Shire LLC, priority 2008, published 2011).
# pIC50: −log10 of the molar value.
# Assays:
# [1] = cited from earlier work
# [2] = pharmacokinetics in vivo (half-life, exposure, first pass); parameters: species or system human; conditions: after anagrelide treatment
# [3] = test system: human phosphodiesterase III (PDE III); assay: PDE III inhibition; format: biochemical; conditions: versus anagrelide
# [4] = test system: TPO-induced megakaryocytopoiesis; conditions: cited from earlier work
# [5] = test system: erythroid or myelomonocytic differentiation; conditions: stimulated by erythropoietin or granulocyte-macrophage colony-stimulating factor; cited from earlier work
# [6] = molecular target: human phosphodiesterase III (PDE III); conditions: cited from earlier work
Structure (SMILES),half-life ([1]; typical) [h],exposure in vivo relative to parent drug [2],potency as PDE III inhibitor relative to anagrelide [3],potency in inhibition of megakaryocytopoiesis relative to parent drug ([4]; versus anagrelide),first pass effect ([1]; in vivo) [%],effect on erythroid or myelomonocytic differentiation [5],"pIC50 ([4]; in vitro, human megakaryocytopoiesis, read-out: estimated IC50, inhibition of TPO-induced megakaryocytopoiesis)",pIC50 [6]
O=C1NC2=Nc3ccc(Cl)c(Cl)c3CN2C1O (stereo not drawn) [3-hydroxyanagrelide],2.5,2-3 fold,over 40 fold,no more potent than the parent drug,–,–,–,–
"O=C1CN2Cc3c(ccc(Cl)c3Cl)N=C2N1 [Anagrelide, 6,7-dichloro-1,5-dihydroimidazo[2,1-b]-quinazolin-2(3H)-one]",–,–,–,–,> 50,does not affect,~7.59,~7.54
Cc1[nH]c(=O)c(C#N)cc1-c1ccncc1 [milrinone],–,–,–,–,–,–,–,6.46 to 6.77
